Test results from US8883826B2, “Alkynyl derivatives as modulators of metabotropic glutamate receptors” (Addex Pharma SA, priority 2004, dated 2014).

Target: T1, mGluR5 (Rattus norvegicus, UniProt P31424)
T1 construct: tissue Charles River Laboratories; host or cells: rat brain cortex membranes (Sprague-Dawley)
Experiment: mGluR5 binding assay ([3H]-MPEP radioligand competition)
Details: competition with 3 nM [3H]-MPEP, rat brain cortical membranes, 1 h at 4 °C; mean of at least three independent experiments in duplicate
Description: Activity of compounds of the invention was examined following a radioligand binding technique using whole rat brain and tritiated 2-methyl-6-(phenylethynyl)-pyridine ([^3H]-MPEP) as a ligand following similar methods than those described in F. Gasparini et al. Bioorg. Med. Chem. Lett. 2002, 12, 407-409 and in J. F. Anderson et al. J. Pharmacol. Exp. Ther. 2002, 303, 3, 1044-1051.
Cortices were dissected out from brains of 200-300 g Sprague-Dawley rats (Charles River Laboratories, L'Arbresle, France). Tissues were homogenized in 10 volumes (vol/wt) of ice-cold 50 mM Hepes-NaOH (pH 7.4) using a Polytron disrupter (Kinematica AG, Luzern, Switzerland) and centrifuged for 30 min at 40,000 g. (4° C.). The supernatant was discarded and the pellet washed twice by resuspension in 10 volumes 50 mM HEPES-NaOH. Membranes were then collected by centrifugation and washed before final resuspension in 10 volumes of 20 mM HEPES-NaOH, pH 7.4. Protein concentration was determined by the Bradford method (Bio-Rad protein assay, Reinach, Switzerland) with bovine serum albumin as standard.
[^3H]-MPEP Binding Experiments:
Membranes were thawed and resuspended in binding buffer containing 20 mM HEPES-NaOH, 3 mM MgCl2, 3 mM CaCl2, 100 mM NaCl, pH 7.4. Competition studies were carried out by incubating for 1 h at 4° C.: 3 nM [^3H]-MPEP (39 Ci/mmol, Tocris, Cookson Ltd, Bristol, U.K.), 50 μg membrane and a concentration range of 0.003 nM-30 μM of compounds, for a total reaction volume of 300 μl. The non-specific binding was defined using 30 μM MPEP. Reaction was terminated by rapid filtration over glass-fiber filter plates (Unifilter 96-well GF/B filter plates, Perkin-Elmer, Schwerzenbach, Switzerland) using 4×400 μl ice cold buffer using cell harvester (Filtermate, Perkin-Elmer, Downers Grove, USA). Radioactivity was determined by liquid scintillation spectrometry using a 96-well plate reader (TopCount, Perkin-Elmer, Downers Grove, USA).
The inhibition curves were generated using the Prism GraphPad program (Graph Pad Software Inc, San Diego, USA). IC50 determinations were made from data obtained from 8 point-concentration response curves using a non linear regression analysis.
The table below represents the mean of IC50 obtained from at least three independent experiments of selected molecules performed in duplicate.

T1 sequence (P31424 21-1203): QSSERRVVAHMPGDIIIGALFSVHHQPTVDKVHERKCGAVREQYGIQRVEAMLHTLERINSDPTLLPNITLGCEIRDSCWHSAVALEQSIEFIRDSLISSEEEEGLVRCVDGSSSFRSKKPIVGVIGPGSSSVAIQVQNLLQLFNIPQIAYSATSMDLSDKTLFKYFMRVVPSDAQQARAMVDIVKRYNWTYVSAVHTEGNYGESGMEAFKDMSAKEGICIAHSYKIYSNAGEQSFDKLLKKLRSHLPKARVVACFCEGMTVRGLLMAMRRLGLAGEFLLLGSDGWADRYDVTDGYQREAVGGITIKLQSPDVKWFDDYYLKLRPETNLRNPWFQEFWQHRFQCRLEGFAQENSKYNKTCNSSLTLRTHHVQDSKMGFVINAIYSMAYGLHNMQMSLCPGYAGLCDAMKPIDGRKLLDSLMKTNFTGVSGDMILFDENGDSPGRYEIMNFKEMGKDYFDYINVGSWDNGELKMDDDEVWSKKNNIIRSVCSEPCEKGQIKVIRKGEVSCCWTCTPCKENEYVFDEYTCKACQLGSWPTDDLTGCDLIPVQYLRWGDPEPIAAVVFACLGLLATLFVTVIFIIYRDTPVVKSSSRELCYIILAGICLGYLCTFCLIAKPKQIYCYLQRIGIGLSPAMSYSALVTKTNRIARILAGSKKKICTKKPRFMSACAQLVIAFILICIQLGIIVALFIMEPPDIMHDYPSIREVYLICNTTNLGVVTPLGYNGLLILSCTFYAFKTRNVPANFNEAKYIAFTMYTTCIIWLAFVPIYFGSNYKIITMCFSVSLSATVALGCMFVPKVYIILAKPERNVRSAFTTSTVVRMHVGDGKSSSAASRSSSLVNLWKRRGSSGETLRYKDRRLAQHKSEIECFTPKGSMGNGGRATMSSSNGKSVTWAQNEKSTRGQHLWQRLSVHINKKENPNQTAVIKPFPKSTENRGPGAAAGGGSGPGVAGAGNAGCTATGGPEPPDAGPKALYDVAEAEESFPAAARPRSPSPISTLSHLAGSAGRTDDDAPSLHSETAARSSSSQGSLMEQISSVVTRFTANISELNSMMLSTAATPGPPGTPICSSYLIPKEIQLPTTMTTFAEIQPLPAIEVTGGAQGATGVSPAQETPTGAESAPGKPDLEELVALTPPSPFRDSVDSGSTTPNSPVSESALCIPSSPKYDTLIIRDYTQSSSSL

| SMILES | IC50 |
| --- | --- |
| Cc1c(Cl)cccc1-c1noc(CCC#Cc2ccccn2)n1 [Example 66, 2-(4-(3-(3-Chloro-2-methylphenyl)-1,2,4-oxadiazol-5-yl)but-1-ynyl)pyridine] | < 500 nM |
| Oc1cccc2oc(CCC#Cc3ccccn3)nc12 [Example 70, 2-(4-(Pyridin-2-yl)but-3-ynyl)benzo[d]oxazol-4-ol] | < 10000 nM |
| Fc1ccc(C#CCCc2nc3ccccc3o2)nc1 [Example 71, 2-(4-(5-Fluoropyridin-2-yl)but-3-ynyl)benzo[d]oxazole] | < 10000 nM |
| COc1cccc2oc(CCC#Cc3ccccn3)nc12 [Example 72, 4-Methoxy-2-(4-(pyridin-2-yl)but-3-ynyl)benzo[d]oxazole] | < 10000 nM |
| Cc1nc(C#CCCc2cn3ccccc3n2)cs1 [Example 73, 2-(4-(2-Methylthiazol-4-yl)but-3-ynyl)imidazo[1,2-a]pyridine] | < 10000 nM |
| Fc1ccc(C#CCCc2cn3ccccc3n2)nc1 [Example 75, 2-(4-(5-Fluoropyridin-2-yl)but-3-ynyl)-imidazo[1,2-a]pyridine] | < 10000 nM |
| Fc1cc(Cl)c2oc(CCC#Cc3ccccn3)nc2c1 [Example 77, 7-Chloro-5-fluoro-2-(4-(pyridin-2-yl)but-3-ynyl)benzo[d]oxazole] | < 50 nM |
| N#Cc1ccc2oc(CCC#Cc3ccccn3)nc2c1 [Example 79, 2-(4-(Pyridin-2-yl)but-3-ynyl)benzo[d]oxazole-5-carbonitrile] | < 10000 nM |
| Cc1nc(C#CCCc2nc3cc(F)cc(Cl)c3o2)cs1 [Example 80, 7-Chloro-5-fluoro-2-(4-(2-methylthiazol-4-yl)but-3-ynyl)benzo[d]oxazole] | < 50 nM |
| FC(F)(F)c1cccc2nc(CCC#Cc3ccccn3)oc12 [Example 81, 7-(Trifluoromethyl)-2-(4-(pyridin-2-yl)but-3-ynyl)benzo[d]oxazole] | < 50 nM |
| Fc1cc(Br)c2oc(CCC#Cc3ccccn3)nc2c1 [Example 82, 7-Bromo-5-fluoro-2-(4-(pyridin-2-yl)but-3-ynyl)benzo[d]oxazole] | < 50 nM |
| Clc1nccc(C#CCCc2nc3ccccc3o2)n1 [Example 84, 2-(4-(2-Chloropyrimidin-4-yl)but-3-ynyl)benzo[d]oxazole] | < 10000 nM |
| Brc1cccc2oc(CCC#Cc3ccccn3)nc12 [Example 86, 4-Bromo-2-(4-(pyridin-2-yl)but-3-ynyl)benzo[d]oxazole] | < 50 nM |
| C(#Cc1ccccn1)CCc1nc2c(-c3ccccc3)cccc2o1 [Example 87, 4-Phenyl-2-(4-(pyridin-2-yl)but-3-ynyl)benzo[d]oxazole] | < 10000 nM |
| Clc1cccc2oc(CCC#Cc3ccccn3)nc12 [Example 88, 4-Chloro-2-(4-(pyridin-2-yl)but-3-ynyl)benzo[d]oxazole] | < 50 nM |
| Fc1ccc(F)c2oc(CCC#Cc3ccccn3)nc12 [Example 96, 4,7-Difluoro-2-(4-(pyridin-2-yl)but-3-ynyl)benzo[d]oxazole] | < 50 nM |
| Fc1ccc(C(F)(F)F)c2nc(CCC#Cc3ccccn3)oc12 [Example 97, 7-Fluoro-4-(trifluoromethyl)-2-(4-(pyridin-2-yl)but-3-ynyl)benzo[d]oxazole] | < 10000 nM |
| C(#Cc1ccncn1)CCc1nc2ccccc2o1 [Example 98, 2-(4-(Pyrimidin-4-yl)but-3-ynyl)benzo[d]oxazole] | < 10000 nM |
| CN(C(=O)CCC#Cc1ccccn1)c1cccc(Cl)c1 [Example 99, N-(3-Chlorophenyl)-N-methyl-5-(pyridin-2-yl)pent-4-ynamide] | < 10000 nM |
| Cc1ccc(Cl)c2sc(CCC#Cc3ccccn3)nc12 [Example 100, 7-Chloro-4-methyl-2-(4-(pyridin-2-yl)but-3-ynyl)benzo[d]thiazole] | < 10000 nM |
| Fc1cccc2sc(CCC#Cc3ccccn3)nc12 [Example 101, 4-Fluoro-2-(4-(pyridin-2-yl)but-3-ynyl)benzo[d]thiazole] | < 50 nM |
| Cc1ccc(C)c2sc(CCC#Cc3ccccn3)nc12 [Example 102, 4,7-Dimethyl-2-(4-(pyridin-2-yl)but-3-ynyl)benzo[d]thiazole] | < 10000 nM |
| Cc1cccc2sc(CCC#Cc3ccccn3)nc12 [Example 103, 4-Methyl-2-(4-(pyridin-2-yl)but-3-ynyl)benzo[d]thiazole] | < 50 nM |
| Fc1ccc2sc(CCC#Cc3ccccn3)nc2c1 [Example 104, 5-Fluoro-2-(4-(pyridin-2-yl)but-3-ynyl)benzo[d]thiazole] | < 50 nM |
| Clc1cccc2sc(CCC#Cc3ccccn3)nc12 [Example 105, 4-Chloro-2-(4-(pyridin-2-yl)but-3-ynyl)benzo[d]thiazole] | < 50 nM |
| Cc1nc(C#CCCc2nc3ccccc3s2)cs1 [Example 112, 2-(4-(2-Methylthiazol-4-yl)but-3-ynyl)benzo[d]thiazole] | < 50 nM |
| Fc1ccc(C#CCCc2nc3ccccc3s2)nc1 [Example 113, 2-(4-(5-Fluoropyridin-2-yl)but-3-ynyl)benzo[d]thiazole] | < 10000 nM |
| Cc1cccc(C#CCCc2nc3ccccc3s2)n1 [Example 114, 2-(4-(6-Methylpyridin-2-yl)but-3-ynyl)benzo[d]thiazole] | < 50 nM |
| Fc1ccc(Cl)c2sc(CCC#Cc3ccccn3)nc12 [Example 116, 7-Chloro-4-fluoro-2-(4-(pyridin-2-yl)but-3-ynyl)benzo[d]thiazole] | < 50 nM |
| Fc1cccc(C#CCCc2nc3ccccc3s2)n1 [Example 117, 2-(4-(6-Fluoropyridin-2-yl)but-3-ynyl)benzo[d]thiazole] | < 10000 nM |

The remaining lines, values ahead:

| IC50 | SMILES |
| --- | --- |
| < 50 nM | Fc1cccc2nc(CCC#Cc3ccccn3)oc12 [Example 64, 7-Fluoro-2-(4-(pyridin-2-yl)but-3-ynyl)benzo[d]oxazole] |
| < 50 nM | C(#Cc1ccccn1)CCc1ncc(-c2ccccc2)o1 [Example 65, 2-(4-(5-Phenyloxazol-2-yl)but-1-ynyl)pyridine] |
| < 10000 nM | Cc1cccn2cc(CCC#Cc3ccccn3)nc12 [Example 67, 8-Methyl-2-(4-(pyridin-2-yl)but-3-ynyl)-imidazo[1,2-a]pyridine] |
| < 10000 nM | Cc1cccc2nc(CCC#Cc3ccccn3)cn12 [Example 68, 5-Methyl-2-(4-(pyridin-2-yl)but-3-ynyl)-imidazo[1,2-a]pyridine] |
| < 50 nM | C(#Cc1ccccn1)CCc1cn2c(-c3ccccc3)cccc2n1 [Example 69, 5-Phenyl-2-(4-(pyridin-2-yl)but-3-ynyl)-imidazo[1,2-a]pyridine] |
| < 10000 nM | Fc1ccc2nc(CCC#Cc3ccccn3)cn2c1 [Example 74, 6-Fluoro-2-(4-(pyridin-2-yl)but-3-ynyl)-imidazo[1,2-a]pyridine] |
| < 10000 nM | C(#Cc1ccccn1)CCc1nc2cccnc2o1 [Example 76, 2-(4-(Pyridin-2-yl)but-3-ynyl)oxazolo[5,4-b]pyridine] |
| < 10000 nM | C(#Cc1ccccn1)CCc1nc2ncccc2o1 [Example 78, 2-(4-(Pyridin-2-yl)but-3-ynyl)oxazolo[4,5-b]pyridine] |
| < 10000 nM | Fc1cc(-c2ccccc2)c2oc(CCC#Cc3ccccn3)nc2c1 [Example 83, 5-Fluoro-7-phenyl-2-(4-(pyridin-2-yl)but-3-ynyl)benzo[d]oxazole] |
| < 50 nM | Cc1cccc2nc(CCC#Cc3ccccn3)oc12 [Example 91, 7-Methyl-2-(4-(pyridin-2-yl)but-3-ynyl)benzo[d]oxazole] |
| < 50 nM | COc1cccc2nc(CCC#Cc3ccccn3)oc12 [Example 94, 7-Methoxy-2-(4-(pyridin-2-yl)but-3-ynyl)benzo[d]oxazole] |
| < 10000 nM | CC(C)c1cccc2nc(CCC#Cc3ccccn3)oc12 [Example 95, 7-Isopropyl-2-(4-(pyridin-2-yl)but-3-ynyl)benzo[d]oxazole] |
| < 500 nM | Cn1c(CCC#Cc2ccccn2)nc2ccccc21 [Example 107, 1-Methyl-2-(4-(pyridin-2-yl)but-3-ynyl)-1H-benzo[d]imidazole] |
| < 500 nM | C(#Cc1ccccn1)CCn1cc2ccccc2n1 [Example 108, 2-(4-(Pyridin-2-yl)but-3-ynyl)-2H-indazole] |
| < 500 nM | C(#Cc1ccccn1)CCn1nc2ccccc2n1 [Example 109, 2-(4-(Pyridin-2-yl)but-3-ynyl)-2H-benzo[d][1,2,3]triazole] |
| < 10000 nM | C(#Cc1ccccn1)CCc1cc(-c2ccccc2)no1 [Example 111, 2-(4-(3-Phenylisoxazol-5-yl)but-1-ynyl)pyridine] |
| < 500 nM | C(#Cc1ccccn1)CCc1ccc2ccccc2n1 [Example 118, 2-(4-(Pyridin-2-yl)but-3-ynyl)quinoline] |
